Assay results from US20220226337A1 (Gilead Sciences, Inc., priority 2018, published 2022).

Biological target: T1, α4β7 integrin interaction with MadCAM-1 (RPMI8866 cells) (Homo sapiens, UniProt P13612+P26010)
T1 construct: α4β7 integrin expressing cells; endogenous in cells; host or cells: RPMI8866 cells
T1 sequence (P13612 34-1032): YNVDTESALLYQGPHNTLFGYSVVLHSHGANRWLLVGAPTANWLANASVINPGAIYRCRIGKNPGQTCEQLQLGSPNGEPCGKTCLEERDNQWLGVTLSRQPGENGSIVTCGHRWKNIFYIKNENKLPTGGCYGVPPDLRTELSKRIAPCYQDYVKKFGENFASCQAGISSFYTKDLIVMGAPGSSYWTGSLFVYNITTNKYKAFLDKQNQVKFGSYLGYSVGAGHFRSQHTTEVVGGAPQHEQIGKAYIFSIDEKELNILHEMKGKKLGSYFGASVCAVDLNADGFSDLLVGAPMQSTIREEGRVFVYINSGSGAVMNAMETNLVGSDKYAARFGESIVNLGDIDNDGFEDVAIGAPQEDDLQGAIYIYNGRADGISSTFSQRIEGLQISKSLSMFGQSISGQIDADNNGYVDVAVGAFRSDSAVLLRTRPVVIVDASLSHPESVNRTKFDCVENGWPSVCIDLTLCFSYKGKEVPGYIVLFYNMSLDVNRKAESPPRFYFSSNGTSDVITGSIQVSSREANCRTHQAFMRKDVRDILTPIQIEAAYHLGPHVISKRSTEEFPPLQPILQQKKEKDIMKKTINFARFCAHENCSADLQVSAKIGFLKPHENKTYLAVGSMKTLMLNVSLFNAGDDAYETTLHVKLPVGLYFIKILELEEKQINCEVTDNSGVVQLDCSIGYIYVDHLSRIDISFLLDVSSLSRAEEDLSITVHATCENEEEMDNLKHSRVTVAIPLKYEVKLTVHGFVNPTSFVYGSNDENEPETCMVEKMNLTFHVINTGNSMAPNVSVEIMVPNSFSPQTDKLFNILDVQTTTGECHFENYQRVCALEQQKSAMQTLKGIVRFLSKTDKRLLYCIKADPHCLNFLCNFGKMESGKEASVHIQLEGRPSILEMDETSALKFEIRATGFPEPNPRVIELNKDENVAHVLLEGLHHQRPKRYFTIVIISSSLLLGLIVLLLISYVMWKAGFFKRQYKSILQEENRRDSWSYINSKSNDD
T1 sequence (P26010 20-798): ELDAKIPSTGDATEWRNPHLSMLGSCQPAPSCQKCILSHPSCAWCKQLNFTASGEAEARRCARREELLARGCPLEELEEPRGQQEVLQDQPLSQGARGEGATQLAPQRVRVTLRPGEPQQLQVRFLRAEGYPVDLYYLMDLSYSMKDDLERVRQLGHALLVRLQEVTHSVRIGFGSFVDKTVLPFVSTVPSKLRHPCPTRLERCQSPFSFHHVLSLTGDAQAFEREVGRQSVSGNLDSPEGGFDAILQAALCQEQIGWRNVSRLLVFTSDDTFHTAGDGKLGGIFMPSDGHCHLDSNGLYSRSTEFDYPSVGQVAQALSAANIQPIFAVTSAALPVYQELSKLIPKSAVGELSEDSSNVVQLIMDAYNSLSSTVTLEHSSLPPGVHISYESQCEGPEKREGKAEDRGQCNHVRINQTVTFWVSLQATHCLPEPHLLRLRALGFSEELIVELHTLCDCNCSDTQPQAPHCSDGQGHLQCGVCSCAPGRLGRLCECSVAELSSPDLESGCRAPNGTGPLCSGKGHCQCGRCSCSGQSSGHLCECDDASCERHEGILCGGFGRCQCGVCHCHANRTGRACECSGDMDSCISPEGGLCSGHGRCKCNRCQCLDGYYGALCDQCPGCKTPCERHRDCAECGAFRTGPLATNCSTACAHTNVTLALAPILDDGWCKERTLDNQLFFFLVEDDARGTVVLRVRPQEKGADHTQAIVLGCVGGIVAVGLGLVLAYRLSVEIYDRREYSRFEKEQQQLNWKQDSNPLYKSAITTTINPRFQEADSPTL
Test: α4β7 Integrin Cell Capture Assay
Type: cell-based
Settings: capture of α4β7 integrin expressing RPMI8866 cells on recombinant MadCAM-1 extracellular domain-coated plate; 0.5 mM MnCl2
How it was run: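 RPMI8866 cells (0.5×10^6 cells/mL in DMEM + 0.5% FBS + 0.5 mM MnCl2) preincubated with compound 1 h at 37 °C, then allowed to adhere 30 min at 37 °C to plates coated with MAdCAM-1 extracellular domain (1.0 μg/mL). Bound cells fixed with 2% glutaraldehyde, Hoechst-stained, imaged and counted; EC50 from cell count versus concentration.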

Row | Compound | EC50
1 | O=C(N[C@@H](Cc1ccc(-c2ncc3ccccc3c2C(F)(F)F)c2c1OCCO2)C(=O)O)c1c(F)cccc1F [Example 12, (S)-2-(2,6-difluorobenzamido)-3-(8-(4-(trifluoromethyl)isoquinolin-3-yl)-2,3-dihydrobenzo[b][1,4]dioxin-5-yl)propanoic acid] | 13.9 nM
2 | Cn1c(=O)n(-c2ccc(C[C@H](NC(=O)c3c(F)cc(N4CCOC[C@@H]4C(F)(F)F)cc3F)C(=O)O)c3c2OCCC3)c(=O)c2ccncc21 [Example 124] | 0.065 nM
3 | O=C(N[C@@H](Cc1ccc(-c2cccc3c2OCCC3)c2c1CCCO2)C(=O)O)c1c(F)cccc1F [Example 66, (S)-3-([8,8′-bichroman]-5-yl)-2-(2,6-difluorobenzamido)propanoic acid] | 120 nM
4 | Cc1cc(N2CCOC[C@@H]2C(F)(F)F)cc(F)c1C(=O)N[C@@H](Cc1ccc(-c2c(C)c(C(F)(F)F)cn(C)c2=O)c2c1COC2)C(=O)O [Example 187] | 0.41 nM
5 | COc1cc(C)n(C)c(=O)c1-c1ccc(C[C@H](NC(=O)c2c(C)cc(N3CCOC[C@@H]3C(F)(F)F)cc2F)C(=O)O)c2c1OCCC2 [Example 166] | 0.195 nM
6 | Cc1nc(-c2ccc(C[C@H](NC(=O)c3c(F)cc(N4CCOC[C@@H]4C(F)(F)F)cc3Cl)C(=O)O)c3c2OCCC3)c(=O)n(C)c1C [Example 150] | 0.14 nM
7 | Cc1cc(N2CCC2)c(-c2ccc(C[C@H](NC(=O)c3c(F)cc(N4CCOC[C@@H]4C(F)(F)F)cc3F)C(=O)O)c3c2OCCC3)c(=O)n1C (atropisomer, axis not shown) [Example 152] | 0.791 nM
8 | Cc1cc(N2CCC2)c(-c2ccc(C[C@H](NC(=O)c3c(F)cc(N4CCOC[C@@H]4C(F)(F)F)cc3F)C(=O)O)c3c2OCCC3)c(=O)n1C (atropisomer, axis not shown) [Example 153] | 0.551 nM
9 | Cc1nc(-c2ccc(C[C@H](NC(=O)c3c(F)cc(N4CC[C@@H]4C(F)(F)F)cc3F)C(=O)O)c3c2OCCC3)c(=O)n(C)c1C [Example 131] | 1.56 nM
10 | Cc1nc(-c2ccc(C[C@H](NC(=O)c3c(F)cc(N4CCOC[C@@H]4C(F)(F)F)cc3F)C(=O)O)c3c2CCC3)c(=O)n(C)c1C [Example 193] | 0.264 nM
11 | CCc1nc(-c2ccc(C[C@H](NC(=O)c3c(C)cc(N4CCOC[C@@H]4C(F)(F)F)cc3F)C(=O)O)c3c2OCCC3)c(=O)n(C)c1CC [Example 169] | 0.356 nM
12 | CCc1nc(-c2ccc(C[C@H](NC(=O)c3c(C)cccc3F)C(=O)O)c3c2OCCO3)c(=O)n(C)c1CC [Example 180] | 5.04 nM
13 | O=C(N[C@@H](Cc1ccc(-c2c(Cl)cc(F)cc2Cl)c2c1OCCO2)C(=O)O)c1c(F)cccc1F [Example 4, (S)-3-(8-(2,6-dichloro-4-fluorophenyl)-2,3-dihydrobenzo[b][1,4]dioxin-5-yl)-2-(2,6-difluorobenzamido)propanoic acid] | 26.3 nM
14 | Cc1cc(-c2ccc(C[C@H](NC(=O)c3c(F)cc(N4CCOC[C@@H]4C(F)(F)F)cc3F)C(=O)O)c3c2OCCC3)c(=O)n(C)c1C [Example 162] | 0.78 nM
15 | Cc1cc(N2CCOC[C@@H]2C(F)(F)F)cc(F)c1C(=O)N[C@@H](Cc1ccc(-c2cc3cnccc3n(C)c2=O)c2c1CCCO2)C(=O)O [Example 170] | 0.14 nM
16 | O=C(N[C@@H](Cc1ccc(-c2c(Cl)cc(F)cc2Cl)c2c1COC2)C(=O)O)c1c(F)cccc1F [Example 16, (S)-3-(7-(2,6-dichloro-4-fluorophenyl)-1,3-dihydroisobenzofuran-4-yl)-2-(2,6-difluorobenzamido)propanoic acid] | 31.1 nM
17 | Cc1c(Cl)cc(-c2ccc(C[C@H](NC(=O)c3c(F)cc(N4CCOC[C@@H]4C(F)(F)F)cc3F)C(=O)O)c3c2OCCC3)c(=O)n1C [Example 141] | 0.529 nM
18 | Cc1cc(N2CCOC[C@@H]2C(F)(F)F)cc(F)c1C(=O)N[C@@H](Cc1ccc(-n2c(=O)c3ccncc3n(C)c2=O)c2c1OCCO2)C(=O)O [Example 173] | 0.056 nM
19 | Cc1c(-c2ccc(C[C@H](NC(=O)c3c(F)cccc3F)C(=O)O)c3c2CCOC3)c(=O)n(C)c2ccc(F)cc12 [Example 35, (S)-2-(2,6-difluorobenzamido)-3-(5-(6-fluoro-1,4-dimethyl-2-oxo-1,2-dihydroquinolin-3-yl)isochroman-8-yl)propanoic acid] | 1.96 nM
20 | COc1cccc(OC)c1-c1ccc(CC(NC(=O)c2c(F)cc(NS(=O)(=O)c3ccc(-n4cncn4)cc3)cc2F)C(=O)O)c2c1CN(C(C)=O)CC2 (stereo not shown) [Example 107] | 0.812 nM
21 | CCOCc1cc(OC)c(-c2ccc(C[C@H](NC(=O)c3c(F)cccc3F)C(=O)O)c3c2CCCO3)c(OC)c1 [Example 99, (S)-2-(2,6-difluorobenzamido)-3-(5-(4-(ethoxymethyl)-2,6-dimethoxyphenyl)chroman-8-yl)propanoic acid] | 9.33 nM
22 | CC[C@@H](Nc1cc(F)c(C(=O)N[C@@H](Cc2ccc(-c3c(C)n(C)c(=O)n(C)c3=O)c3c2OCCO3)C(=O)O)c(F)c1)C(F)(F)F [Example 10, (S)-2-(2,6-difluoro-4-(((R)-1,1,1-trifluorobutan-2-yl)amino)benzamido)-3-(8-(1,3,6-trimethyl-2,4-dioxo-1,2,3,4-tetrahydropyrimidin-5-yl)-2,3-dihydrobenzo[b][1,4]dioxin-5-yl)propanoic acid] | 0.864 nM
23 | Cn1cc(C(F)(F)F)nc(-c2ccc(C[C@H](NC(=O)c3c(F)cc(N4CCOC[C@@H]4C(F)(F)F)cc3F)C(=O)O)c3c2OCCC3)c1=O [Example 123] | 0.978 nM
24 | O=C(N[C@@H](Cc1ccc(-c2c(Cl)cc(F)cc2Cl)c2c1COC2)C(=O)O)c1c(Cl)cccc1Cl [Example 17, (S)-3-(7-(2,6-dichloro-4-fluorophenyl)-1,3-dihydroisobenzofuran-4-yl)-2-(2,6-dichlorobenzamido)propanoic acid] | 127 nM
25 | CC[C@@H](Nc1cc(F)c(C(=O)N[C@@H](Cc2ccc(-c3cc4ccccc4n(C)c3=O)c3c2COC3)C(=O)O)c(F)c1)C(F)(F)F [Example 21, (S)-2-(2,6-difluoro-4-(((R)-1,1,1-trifluorobutan-2-yl)amino)benzamido)-3-(7-(1-methyl-2-oxo-1,2-dihydroquinolin-3-yl)-1,3-dihydroisobenzofuran-4-yl)propanoic acid] | 6 nM
26 | CC[C@@H](Nc1cc(F)c(C(=O)N[C@@H](Cc2ccc(-c3c(C)n(C)c(=O)n(C)c3=O)c3c2COC3)C(=O)O)c(F)c1)C(F)(F)F [Example 15, (S)-2-(2,6-difluoro-4-(((R)-1,1,1-trifluorobutan-2-yl)amino)benzamido)-3-(7-(1,3,6-trimethyl-2,4-dioxo-1,2,3,4-tetrahydropyrimidin-5-yl)-1,3-dihydroisobenzofuran-4-yl)propanoic acid] | 0.939 nM
27 | Cc1nc(C)n(C)c(=O)c1-c1ccc(C[C@H](NC(=O)c2c(F)cc(N3CCOC[C@@H]3C(F)(F)F)cc2F)C(=O)O)c2c1OCCC2 (atropisomer, axis not shown) [Example 117] | 0.203 nM
28 | Cc1nc(-c2ccc(C[C@H](NC(=O)c3c(F)cc(N4CCOC[C@@H]4C(F)(F)F)cc3F)C(=O)O)c3c2CC(O)C3)c(=O)n(C)c1C (stereo partly shown) [Example 197] | 0.308 nM
